Data on 36 compounds can be found in ChEMBL document CHEMBL3352218, “Structural basis for inhibition of mycobacterial and human adenosine kinase by 7-substituted 7-(Het)aryl-7-deazaadenine ribonucleosides” (J Med Chem, 2014).

Values after ≈ are worked out from the molar mass of the structure shown. Where only a bound is given, the exact number is not on record here.

The assay deals with Mycobacterium tuberculosis. Description: Antimycobacterial activity against multidrug resistant Mycobacterium tuberculosis Praha 131 assessed as microbial growth inhibition incubated for 14 days. It is filed as functional. To be noted: Praha 131, 336 h.
As to `Nc1ncnc2c1c(-c1ccccc1)cn2[C@@H]1O[C@H](CO)[C@@H](O)[C@H]1O`, the minimal inhibitory concentration (MIC) worked out at 8 µM (≈ 2.74 µg/mL).

`COc1ccc(-c2cn([C@@H]3O[C@H](CO)[C@@H](O)[C@H]3O)c3ncnc(N)c23)cc1`: the minimal inhibitory concentration (MIC) worked out at 16 µM (≈ 5.96 µg/mL).

For the compound `CSc1ccc(-c2cn([C@@H]3O[C@H](CO)[C@@H](O)[C@H]3O)c3ncnc(N)c23)cc1`, the minimum inhibitory concentration (MIC) is 8 µM (≈ 3.11 µg/mL).

For the compound `Nc1ncnc2c1c(-c1cccc3ccccc13)cn2[C@@H]1O[C@H](CO)[C@@H](O)[C@H]1O`, the MIC turned out to be 32 µM (≈ 12.6 µg/mL).

Regarding `Nc1ncnc2c1c(-c1ccc3ccccc3c1)cn2[C@@H]1O[C@H](CO)[C@@H](O)[C@H]1O`, the MIC came to 4 µM (≈ 1.57 µg/mL).

For the compound `Nc1ncnc2c1c(-c1ccco1)cn2[C@@H]1O[C@H](CO)[C@@H](O)[C@H]1O`, the MIC came out at 62.5 µM (≈ 20.8 µg/mL).

On to `Nc1ncnc2c1c(-c1cccs1)cn2[C@@H]1O[C@H](CO)[C@@H](O)[C@H]1O`, for which the MIC was determined as 8 µM (≈ 2.79 µg/mL).

With `Nc1ncnc2c1c(-c1ccoc1)cn2[C@@H]1O[C@H](CO)[C@@H](O)[C@H]1O`, the minimal inhibitory concentration (MIC) worked out at 16 µM (≈ 5.32 µg/mL).

As for `Nc1ncnc2c1c(-c1ccsc1)cn2[C@@H]1O[C@H](CO)[C@@H](O)[C@H]1O`, the MIC stood at 8 µM (≈ 2.79 µg/mL).

For `Nc1ncnc2c1c(-c1cc3ccccc3o1)cn2[C@@H]1O[C@H](CO)[C@@H](O)[C@H]1O`, the minimal inhibitory concentration (MIC) was 16 µM (≈ 6.12 µg/mL).

With `Nc1ncnc2c1c(-c1ccc[nH]1)cn2[C@@H]1O[C@H](CO)[C@@H](O)[C@H]1O`, the MIC is 62.5 µM (≈ 20.7 µg/mL).

In the case of `Nc1ncnc2c1c(-c1cc[nH]c1)cn2[C@@H]1O[C@H](CO)[C@@H](O)[C@H]1O`, the minimum inhibitory concentration (MIC) came to 62.5 µM (≈ 20.7 µg/mL).

Take `Nc1ncnc2c1c(-c1cn[nH]c1)cn2[C@@H]1O[C@H](CO)[C@@H](O)[C@H]1O`: the minimum inhibitory concentration (MIC) turned out to be 125 µM (≈ 41.5 µg/mL).

Take `Nc1ncnc2c1c(-c1cc[nH]n1)cn2[C@@H]1O[C@H](CO)[C@@H](O)[C@H]1O`: the MIC was > 250 µM.

For the compound `C#Cc1cn([C@@H]2O[C@H](CO)[C@@H](O)[C@H]2O)c2ncnc(N)c12`, the minimal inhibitory concentration (MIC) was 8 µM (≈ 2.32 µg/mL).

As for `Nc1ncnc2c1c(-c1c[nH]nn1)cn2[C@@H]1O[C@H](CO)[C@@H](O)[C@H]1O`, the MIC is > 250 µM.

Regarding `Nc1ncnc2c1c(-c1nccs1)cn2[C@@H]1O[C@H](CO)[C@@H](O)[C@H]1O`, the MIC worked out at 125 µM (≈ 43.7 µg/mL).

For the compound `Nc1ncnc2c1c(-c1c[nH]cn1)cn2[C@@H]1O[C@H](CO)[C@@H](O)[C@H]1O`, the minimal inhibitory concentration (MIC) is > 250 µM.

As for `Nc1ncnc2c1c(-c1ncc[nH]1)cn2[C@@H]1O[C@H](CO)[C@@H](O)[C@H]1O`, the minimum inhibitory concentration (MIC) is > 250 µM.

For the compound `Cc1ccc(-c2cn([C@@H]3O[C@H](CO)[C@@H](O)[C@H]3O)c3ncnc(N)c23)cc1C`, the minimal inhibitory concentration (MIC) came out at 8 µM (≈ 2.96 µg/mL).

Regarding `CC(C)c1cccc(-c2cn([C@@H]3O[C@H](CO)[C@@H](O)[C@H]3O)c3ncnc(N)c23)c1`, the minimum inhibitory concentration (MIC) turned out to be 32 µM (≈ 12.3 µg/mL).

In the case of `CC(C)c1ccc(-c2cn([C@@H]3O[C@H](CO)[C@@H](O)[C@H]3O)c3ncnc(N)c23)cc1`, the minimal inhibitory concentration (MIC) turned out to be 16 µM (≈ 6.15 µg/mL).

Consider `CC(C)(C)c1ccc(-c2cn([C@@H]3O[C@H](CO)[C@@H](O)[C@H]3O)c3ncnc(N)c23)cc1`, for which the MIC amounted to 62.5 µM (≈ 24.9 µg/mL).

On to `Nc1ncnc2c1c(-c1ccc(C(F)(F)F)cc1)cn2[C@@H]1O[C@H](CO)[C@@H](O)[C@H]1O`, for which the MIC is 4 µM (≈ 1.64 µg/mL).

Take `CC(C)Oc1ccc(-c2cn([C@@H]3O[C@H](CO)[C@@H](O)[C@H]3O)c3ncnc(N)c23)cc1`: the minimum inhibitory concentration (MIC) was 32 µM (≈ 12.8 µg/mL).

Turning to `Nc1ncnc2c1c(-c1ccc3c(c1)OCO3)cn2[C@@H]1O[C@H](CO)[C@@H](O)[C@H]1O`, the minimum inhibitory concentration (MIC) worked out at 8 µM (≈ 3.09 µg/mL).

`COc1cc(-c2cn([C@@H]3O[C@H](CO)[C@@H](O)[C@H]3O)c3ncnc(N)c23)cc(OC)c1OC`: the minimum inhibitory concentration (MIC) turned out to be 8 µM (≈ 3.46 µg/mL).

As to `Nc1ncnc2c1c(-c1ccc3c4c(cccc14)CC3)cn2[C@@H]1O[C@H](CO)[C@@H](O)[C@H]1O`, the MIC was determined as 16 µM (≈ 6.7 µg/mL).

With `Nc1ncnc2c1c(-c1cc3ccccc3c3ccccc13)cn2[C@@H]1O[C@H](CO)[C@@H](O)[C@H]1O`, the MIC was 32 µM (≈ 14.2 µg/mL).

Regarding `Nc1ncnc2c1c(-c1cccc3c1oc1ccccc13)cn2[C@@H]1O[C@H](CO)[C@@H](O)[C@H]1O`, the MIC is 4 µM (≈ 1.73 µg/mL).

As for `Nc1ncnc2c1c(-c1cccc3c1Oc1ccccc1S3)cn2[C@@H]1O[C@H](CO)[C@@H](O)[C@H]1O`, the minimum inhibitory concentration (MIC) worked out at 16 µM (≈ 7.43 µg/mL).

As to `Nc1ncnc2c1c(-c1cccc3c1Sc1ccccc1S3)cn2[C@@H]1O[C@H](CO)[C@@H](O)[C@H]1O`, the minimal inhibitory concentration (MIC) was found to be 125 µM (≈ 60.1 µg/mL).

Take `Nc1ncnc2c1c(/C=C/c1ccccc1)cn2[C@@H]1O[C@H](CO)[C@@H](O)[C@H]1O`: the MIC stood at 8 µM (≈ 2.95 µg/mL).

In the case of `Nc1ncnc2c1c(-c1ccc(-c3ccccc3)cc1)cn2[C@@H]1O[C@H](CO)[C@@H](O)[C@H]1O`, the MIC stood at 4 µM (≈ 1.67 µg/mL).

With `Nc1ncnc2c1c(-c1ccc(-c3ccc4ccccc4c3)cc1)cn2[C@@H]1O[C@H](CO)[C@@H](O)[C@H]1O`, the minimum inhibitory concentration (MIC) came out at 62.5 µM (≈ 29.3 µg/mL).

Consider `Nc1ncnc2c1c(-c1ccc(COc3cccc4ccccc34)cc1)cn2[C@@H]1O[C@H](CO)[C@@H](O)[C@H]1O`, for which the MIC stood at 32 µM (≈ 16 µg/mL).
